For test [1], the system named is follicular stem cells. Briefly: Culture of follicular stem cells in 9 kinds of media with or without ROCK inhibitor. Type of test: cell-based, human. The conditions noted are these: 10 μM. As to the method:
Then, the follicular stem cells were added to each well of a 12-well plate, and 1 ml of each of control groups and test groups for 9 kinds of media containing ITS+ (insulin, transferrine, selenium) premix, EGF, bFGF and an antibiotic/antimycotic mixture was added to each well of the 12-well plate. 10 μl (10 μM) of the ROCK inhibitor Y-27632 was added to each of the test groups, and the cells were cultured.
At days 2, 3 and 4 after the start of culture, the state of proliferation of the follicular stem cells in each of the media was observed, and the results of the observation are shown in FIGS. 1 to 5.

In test [2] the test system is follicular stem cells. The experiment in a line: Proliferation ability of follicular stem cells at various concentrations of ROCK inhibitor. Type of test: cell-based, human. Conditions: M199/F-12 medium, days 2-6. As to the method: In order to examine the proliferation ability of follicular stem cells at various concentrations of the ROCK inhibitor, the ROCK inhibitor was added at various concentrations to a M199/F-12 medium containing ITS+ premix, EGF, bFGF and antibiotic/antimycotic mixture, and the follicular stem cells obtained in Example 1 were cultured in the medium. Specifically, 10 μM of the ROCK inhibitor was added to M199/F-12 used in Example 1, and the P1 follicular stem cells were cultured in the M199/F-12 medium and collected by TrypLE-Express treatment. Then, the cells were added to each well of a 6-well plate at a density of 7.70×10^5 cells, and 2 ml of M199/F-12 was added to each well of the 6-well plate. The cell suspension was plated in each well of a 6-well plate, and then the ROCK inhibitor Y-27632 was added at concentrations of 10 nM, 100 nM, 1 μM, 10 μM and 100 μM to the 5 wells (excluding the well for a control group) of the 6-well plate, respectively, followed by culture of the follicular stem cells. The medium was replaced at 2-day intervals during culture of the cells, and the cells were photographed 2, 3, 4, 5 and 6 days after the start of cell culture.

As to `CC(N)C1CCC(C(=O)Nc2ccncc2)CC1` (stereo not drawn) [ROCK inhibitor, Y-27632], the “effect on the proliferation of the follicular stem cells compared to the control groups” value in test [1] (in M199/F12, MEM-alpha, DMEM L/G, DMEM H/G, MCDB 131 and IMEM medium) was “good effects”. Besides, the “effect on the proliferation of the follicular stem cells compared to the control groups” value in test [1] (in M199/F12 medium and MEM-alpha medium) is reported as “most excellent effects”. Besides, the “effect on increase in the number and on the viability of follicular stem cells” value in test [1] (specific media containing the ROCK inhibitor) is on record as “excellent effects”. Also, in test [2] (100 nM or less), the “proliferation of the cells versus cells not treated” value was “did not significantly differ”. In test [2] (1 μM or 100 μM), the “morphology / differentiation of the cells” value is “morphological change or differentiation of the cells appeared” and the “proliferation of the cells” value is “enhanced”.
